Columns and labels:
[1] = target: T1, Aspergillus topoisomerase I (Aspergillus nidulans, UniProt Q5BGS7); test: Topoisomerase I cleavage assay, Aspergillus enzyme; type: biochemical; settings: DNA cleavage assay
T1 construct: about 105 kDa by phosphate transfer
T1 sequence (Q5BGS7 1-871): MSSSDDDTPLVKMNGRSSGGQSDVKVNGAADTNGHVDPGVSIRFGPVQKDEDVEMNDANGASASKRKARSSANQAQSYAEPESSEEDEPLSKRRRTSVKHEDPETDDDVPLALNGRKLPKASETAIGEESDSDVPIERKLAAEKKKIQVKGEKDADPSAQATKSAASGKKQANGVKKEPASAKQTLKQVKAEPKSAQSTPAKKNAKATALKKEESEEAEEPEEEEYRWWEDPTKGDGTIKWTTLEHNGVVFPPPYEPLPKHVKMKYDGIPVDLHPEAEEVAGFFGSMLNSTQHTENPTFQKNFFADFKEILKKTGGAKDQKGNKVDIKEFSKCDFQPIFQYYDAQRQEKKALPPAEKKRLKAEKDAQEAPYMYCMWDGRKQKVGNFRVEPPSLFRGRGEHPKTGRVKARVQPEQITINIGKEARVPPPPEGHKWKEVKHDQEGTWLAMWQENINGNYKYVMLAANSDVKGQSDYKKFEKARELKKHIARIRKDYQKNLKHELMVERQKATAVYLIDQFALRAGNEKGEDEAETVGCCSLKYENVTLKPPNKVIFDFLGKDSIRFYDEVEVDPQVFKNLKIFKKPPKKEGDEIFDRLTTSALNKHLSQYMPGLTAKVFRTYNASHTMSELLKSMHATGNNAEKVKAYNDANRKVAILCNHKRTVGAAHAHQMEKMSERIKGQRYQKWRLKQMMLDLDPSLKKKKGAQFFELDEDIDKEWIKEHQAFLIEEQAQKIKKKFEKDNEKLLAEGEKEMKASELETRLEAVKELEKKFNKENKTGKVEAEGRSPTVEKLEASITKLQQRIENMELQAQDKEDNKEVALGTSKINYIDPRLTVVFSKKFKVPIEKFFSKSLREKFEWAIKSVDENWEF
Experimental: Two liters of YG medium (0.5% yeast extract and 2% glucose) were inoculated with approximately 5×10^8 conidia/ml. After 16 hours of growth at 37° C., the mycelia were collected, washed with Buffer I (50 mM Tris-HCl, pH 7.7, 1 mM EDTA, 1 mM EGTA, 10% glycerol, 1 mM phenylmethylsulfonyl fluoride and 1 mM 2-mercaptoethanol), and quickly chilled in liquid nitrogen. The frozen mycelia (approximately 20 grams) were ground to powder and resuspended in 300 ml of Buffer I. The lysate was centrifuged at 10K rpm in a Sorval HB3 Rotor for 15 minutes to remove cell debris. The supernatant was made 6% in polyethylene glycol (v/v) and 1M NaCl. After one hour on ice with gentle stirring, the solution was centrifuged at 14K rpm in a Sorvall Rotor for 30 minutes to remove nucleic acids.
Subsequent steps in purification were the same as described previously for purification of recombinant human DNA topoisomerase I (B. Gatto et al., Cancer Res., 56, 2795 (1996)). Briefly, the supernatant was chromatographed directly onto a hydroxyapatite Bio-gel HTP (BioRad Laboratories, Richmond, Calif.) column. Fractions containing relaxation activity were pooled, diluted and then loaded onto a BioRex70 column (BioRad Laboratories, Richmond, Calif.). The column was developed with a linear gradient from 0.2 to 1M KCl. The peak fractions were pooled and dialyzed overnight at 4° C. against 30 mM potassium phosphate, 50% glycerol (v/v), 0.5 mM EDTA, and 1 mM DTT. Recombinant human topoisomerase I was purified from Escherichia coli BL21 (DE3) harboring PET1B as described previously (Gatto et al., Cancer Res., 56, 2795 (1996)).
DNA topoisomerase I cleavage assays were performed as described by Y.-H. Hsiang et al., J. Biol. Chem., 260, 14873 (1985). YEpG DNA was linearized with BamHI and then 3 '-end-labeled with Klenow polymerase and α[-^32 P]dCTP. Following phenol extraction and ethanol precipitation, the labeled DNA was resuspended in 10 mM Tris, pH 8.0, and 1 mM EDTA. The DNA cleavage assay was done in a reaction mixture (20 μl) containing 40 mM Tris-HCl, pH 7.8, 100 mM KCl, 10 mM MgCl2, 0.5 mM dithiothreitol, 0.5 mM EDTA, 30 μg/ml bovine serum albumin, 20 ng of labeled YEpG DNA, and […] of Aspergillus or human topoisomerase I diluted to various extents. Following incubation at 23° C. for 15 minutes, the reactions were terminated by the addition of SDS (final concentration 1%) and proteinase K (final concentration 200 μg/ml). Proteinase K treatment continued at 37° C. for another 1 hour. The terminated reactions were either alkali-denatured and then loaded (alkaline loading) or loaded directedly in neutral loading buffer (neutral loading) onto a 1% agarose gel in neutral TPE electrophoresis solution. Gel drying and autoradiography were performed as described by Hsiang et al., cited above.

[2] = tested on: yeast cells expressing human topoisomerase I; test: Yeast cytotoxicity assay, human topoisomerase I; type: cell-based, S. cerevisiae
Text: (§1) The topoisomerase I-specific in vivo cytotoxicity assay was adapted from A. M. Knab et al., J. Biol. Chem., 268, 22322 (1993). In this system, various topoisomerase I genes or cDNAs cloned into the single-copy yeast plasmid vector (YCpGAL1; Knab et al., cited above) are expressed under the control of the GAL1 promoter in the JN2-134 strain of S. cerevisiae (MAT, rad52::Leu2, trp1, ade2-1, his7, ura3-52, ise1, top1-1, and leu2; M. A. Bjornsti et al., Cancer Res., 49, 6318 (1989)). The topoisomerase I gene or cDNA constructs in the vector are, respectively, the wild-type yeast topoisomerase I gene (YCpGAL-ScTOP1; need cite (1989)), a nonfunctional topoisomerase I gene where the active site tyrosine-727 is mutated to phenylalanine (YCPGAL1-Sctop1Y727; A. M. Knab et al., J. Biol. Chem., 268, 22322 (1993)), and the wild-type human topoisomerase I cDNA (YCp-GAL-hTOP1; M. A. Bjornsti et al., Cancer Res., 49, 6318 (1989)).
(§2) To qualitatively test the cytotoxicity and the topoisomerase I specificity of the drugs, yeast cells containing the specified plasmid were grown in dropout medium supplemented with uracil, 2% galactose, and the drug being tested.

[3] = tested on: yeast cells expressing yeast topoisomerase I; test: Yeast cytotoxicity assay, yeast topoisomerase I; type: cell-based, S. cerevisiae
Text: as §1, §2

[4] = tested on: yeast cells expressing nonfunctional yeast topoisomerase I; test: Yeast cytotoxicity assay, nonfunctional yeast topoisomerase I; type: cell-based, S. cerevisiae
Text: as §1, §2

[5] = target: T2, mammalian DNA topoisomerase I (Homo sapiens, UniProt P11387); settings: cited from earlier work
T2 sequence (P11387 1-765): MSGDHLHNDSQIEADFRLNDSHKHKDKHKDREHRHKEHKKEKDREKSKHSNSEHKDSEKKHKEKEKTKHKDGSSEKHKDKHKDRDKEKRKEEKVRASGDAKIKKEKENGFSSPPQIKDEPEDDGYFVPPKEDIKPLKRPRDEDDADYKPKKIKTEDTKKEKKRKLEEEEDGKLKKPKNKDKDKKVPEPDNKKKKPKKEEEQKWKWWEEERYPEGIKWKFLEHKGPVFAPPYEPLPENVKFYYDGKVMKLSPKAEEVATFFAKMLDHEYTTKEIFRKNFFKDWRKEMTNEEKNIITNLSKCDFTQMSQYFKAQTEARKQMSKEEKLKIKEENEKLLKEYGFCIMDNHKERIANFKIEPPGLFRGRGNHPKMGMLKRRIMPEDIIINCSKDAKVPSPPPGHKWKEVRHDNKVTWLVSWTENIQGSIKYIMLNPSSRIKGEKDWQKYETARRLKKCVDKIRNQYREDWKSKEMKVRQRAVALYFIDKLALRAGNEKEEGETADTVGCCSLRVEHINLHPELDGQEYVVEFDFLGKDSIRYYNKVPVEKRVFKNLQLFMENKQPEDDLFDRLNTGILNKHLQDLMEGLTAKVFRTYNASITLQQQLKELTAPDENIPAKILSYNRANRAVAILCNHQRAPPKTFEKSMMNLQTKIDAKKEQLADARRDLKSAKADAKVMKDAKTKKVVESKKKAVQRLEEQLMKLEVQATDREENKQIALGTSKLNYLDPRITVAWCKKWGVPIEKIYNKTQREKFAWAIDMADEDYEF

Structure (SMILES): COc1ccc(-c2nc3ccc([N+](=O)[O-])cc3[nH]2)cc1 [QS/II/9]
- inhibition (poisoning) of Aspergillus topoisomerase I, in words [1]: None of the mono-benzimidazoles, including QS/II/50, QS/II/51, QS/II/59A, an QS/II/9, exhibited any inhibitory effect
- cytotoxicity to yeast cells expressing human topoisomerase I [2]: highly cytotoxic
- cytotoxicity to yeast cells expressing functional yeast topoisomerase I [3]: not cytotoxic
- cytotoxicity to yeast cells expressing nonfunctional yeast topoisomerase I [4]: not cytotoxic
- inhibition (poisoning) of mammalian DNA topoisomerase I, previous studies [5]: inhibitors (poisons)

Source: patent US5770617A, “Terbenzimidazoles useful as antifungal agents” (Rutgers, The State University of New Jersey, priority 1997, dated 1998)
